Data published in patent US5972946A, “Acetamide derivative, process for preparing the same, and a pharmaceutical composition containing the same” (Dainippon Pharmaceutical Co., Ltd., priority 1995, dated 1999).

Tests used:
[1] = known from literature; cited from earlier work
[2] = Light and dark box test (anti-anxiety effect); assay type: in vivo, mouse (Std-ddY, male); settings: Mus musculus, 0.5 h; oral, 30 min before test; mice; p<0.05 vs vehicle; read-out: Anti-anxiety effect MED (minimum effective dose)
Text: Experiment 2: Light and dark box test (anti-anxiety effect)
Anti-anxiety effect of test compounds was examined in a box with light and dark compartments according to the method of Crawley, J. and Goodwin, F. K. [cf. Pharmacol. Biochem. Behav. 13, 167-170 (1980)] with slight modification.
Light and dark box test is a useful, simple and handy method for behaviorally and pharmacologically examining anti-anxiety effect of the drugs, by utilizing the habit of rodents such as mice and rats, etc. which prefer to stay in a dark place, and regarding as positive drug effect the increase of the relative stay of the animals in the light compartment which is an uncomfortable place for the animals.
Light and dark box test was carried out using the test box device (35×15×17 cm) which comprises: a light compartment (20×15×17 cm) consisting of transparent acrylic plates and highly illuminated by an incandescent lamp (1,700 lux); a dark compartment (15×15×17 cm) being made of black acrylic plates connected to the light compartment; and at the boundary of compartments, an opening (4.4×5 cm) in which mice can go through freely between two compartments.
Male mice of Std-ddY strain weighing 25-30 g were used in a group of 10. Each trial was started by placing a mouse in the center of the light compartment 30 minutes after oral administration of a test compound, and the time spent by the mouse in the light compartment during a 5 minute observation period was measured, and the rate of the stay of mice in the light compartment to the whole time spent in the experiment was calculated. The increasing rate of the relative stay of the test compound to that of the vehicle control group was yielded, based on the rate of the stay of mice in the light compartment.
The anti-anxiety effect of the test compound was represented by the minimum effectivetive dose (MED) at which the increasing rate of the relative stay was regarded statistically as significant (Williams-Wilcoxon's test, p<0.05).

[3] = Isoniazid-induced clonic convulsion test (anti-convulsant effect); assay type: in vivo, mouse (Std-ddY, male); settings: Mus musculus, 0.5 h; oral, 30 min before isoniazid 200 mg/kg s.c.; mice; read-out: Anti-isoniazid effect ED25 (dose which prolonged the onset time of clonic convulsion by 25%)
Text: Experiment 3: Isoniazid-induced clonic convulsion test (anti-convulsant effect)
Isoniazid inhibits glutamate decarboxylase which catalyzes GABA synthesis, deases brain GABA levels, and induces clonic convulsion. According to the method of Auta, J. et al. [cf. J. Pharmacol. Exp. Ther. 265, 649-656 (1993)] with slight modification, we examined antagonistic effect of the test compounds on isoniazid-induced clonic convulsion. […] Those are BZ anxiolytics represented by diazepam, neurosteroids such as allopregnanolone, allotetrahydrodeoxycortico-sterone(THDOC) and BZω3 receptor agonists which enhance the synthesis of neurosteroids.
Male mice of Std-ddY strain weighing 22-24 g were used in a group of 6. Thirty minutes after oral administration of the test compounds, mice were injected with isoniazid (200 mg/kg, s.c.), and immediately thereafter, placed individually in acrylic observation cages. The onset time of clonic convulsion was measured (cut-off time: 90 minutes). The latency in the control group was about 40 minutes.
Anti-isoniazid effect of the test compounds was expressed as the dose which prolonged the onset time by 25% compared to that in the vehicle group (ED25). The ED25 value was calculated according to the Litchfield-Wilcoxon's method.

[4] = molecular target: peripheral (ω3) benzodiazepine (BZ) receptor (Rattus norvegicus, UniProt P16257); experiment: BZω3 (peripheral-type) benzodiazepine receptor binding assay
[5] = Collagen-induced arthritis inhibitory test 2; assay type: in vivo, mouse (DBA/1j, female); settings: for suppression of arthritis as compared with control: Example 165: at least until 34th day; for effect on collagen-induced arthritis inhibitory test (conclusion): experiment 5, 10 mg/kg oral
Method: Experiment 5: Collagen-induced arthritis inhibitory test 2
Collagen-induced arthritis inhibitory test was carried out according to Kakimoto, K. et al. (cf. above reference of Kakimoto, K. et al.) with slight modification. Type II collagen from bovine joints (product of the Collagen Research Center, Japan) was emulsified in complete Freund's adjuvant (product of DIFCO Lab., U.S.A.). Female mice of DBA/1j strain (product of Nippon Charles River, Japan) were immunized by injection at the base of the tail with 150 μg of the emulsified collagen. After twenty one days from the immunization, arthritis was induced by a booster immunization of 150 μg of the emulsified collagen prepared in the same manner as above at the base of the tail again. Test compounds were administered orally at a dose of 10 mg/kg on 5 consecutive days in a week for 8 weeks, beginning from the day before the immunization. Mice were monitored visually for arthritis once a week beginning from the day of the booster immunization. The severity of arthritis was estimated by the sum of the scores of all 4 paws.

[6] = Collagen-induced arthritis inhibitory test 1; assay type: in vivo, mouse (DBA/1j, male); settings: for severity of arthritis (arthritic score) versus control group / onset of arthritis delayed until (days after the booster immunization): 10 mg/kg oral daily; for onset of arthritis delayed until (days after the booster immunization): control onset on 28th day; for effect on collagen-induced arthritis inhibitory test (conclusion): experiment 4, 10 mg/kg oral
Method: Experiment 4: Collagen-induced arthritis inhibitory test 1
Collagen-induced arthritis inhibitory test is an experimental model for rheumatoid arthritis reported by Trethan, D. E. et al. [cf. […] J. Immunol., 140, 78-83 (1988)].
Collagen-induced arthritis inhibitory test was carried out according to Kakimoto, K. et al. (cf. above reference of Kakimoto, K. et al.) with slight modification. Solubilized bovine cartilage type II collagen (product of Elastine Products, U.S.A.) was emulsified in complete Freund's adjuvant (product of DIFCO Lab., U.S.A.). Male mice of DBA/1j strain (6 week-old; product of Nippon Charles River, Japan) were immunized by injection at the base of the tail with 150 μg of the emulsified collagen. After twenty one days from the immunization, arthritis was induced by a booster immunization of 150 μg of the emulsified collagen prepared in the same manner as above at the base of the tail again. A test compound was orally administered daily at the dose of 10 mg/kg from the first immunization. Mice were observed daily 5 days after the booster immunization for the onset of arthritis, and an arthritic score was derived by grading the severity of involvement of each paw five scales (0-4) according to the method of Wood, F. D. et al. [cf. Int. Arch. Allergy Appl. The severity of arthritis was estimated by the sum of the scores of all 4 paws, and the onset of the disease was determined when score 1 was observed.

Row | SMILES | minimal effective dose [2] | ED25 [3] | IC50 [4] | other results
1 | CN1C(=O)CN=C(c2ccccc2)c2cc(Cl)ccc21 [diazepam] |  |  |  | effect in isoniazid-induced clonic convulsion test (known drugs) [1]: positive effect
2 | CCCN(CCC)C(=O)CNc1nc(-c2ccccc2)nc(C)c1C [Example 1, 2-(5,6-dimethyl-2-phenyl-4-pyrimidinylamino)-N,N-dipropylacetamide] | 0.3 mg/kg | 82.2 mg/kg | 3.1 nM | 
3 | CCN(C(=O)COc1nc(-c2ccc(N)cc2)nc(C)c1C)c1ccccc1 [Example 165, 2-[2-(4-aminophenyl)-5,6-dimethyl-4-pyrimidinyloxy]-N-ethyl-N-phenylacetamide] |  |  | 5.07 nM | suppression of arthritis as compared with control ([5]; 10 mg/kg oral, 5 days a week): markedly suppressed the arthritis as compared with control group; effect on collagen-induced arthritis inhibitory test (conclusion) [5]: potent effect
4 | Cc1nc(-c2ccc(Cl)cc2)nc(NCC(=O)N(C)c2ccc(F)cc2)c1C [Example 36, 2-[2-(4-Chlorophenyl)-5,6-dimethyl-4-pyrimidinylamino]-N-(4-fluorophenyl)-N-methylacetamide] | 0.3 mg/kg | 54.2 mg/kg | 1.44 nM | 
5 | CCN(CC)C(=O)CNc1nc(-c2ccc(Cl)cc2)nc(C)c1C [Example 10, 2-[2-(4-Chlorophenyl)-5,6-dimethyl-4-pyrimidinylamino]-N,N-diethylacetamide] | 1 mg/kg | 36.9 mg/kg | 0.7 nM | 
6 | C[C@]12CC[C@@H](O)C[C@@H]1CC[C@@H]1[C@@H]2CC[C@]2(C)[C@@H](C(=O)CO)CC[C@@H]12 [THDOC, allotetrahydrodeoxycorticosterone] |  |  |  | effect in isoniazid-induced clonic convulsion test (known drugs) [1]: positive effect
7 | COc1ccc(N(C)C(=O)CNc2nc(-c3ccc(Cl)cc3)nc(C)c2C)cc1 [Example 42, 2-[2-(4-Chlorophenyl)-5,6-dimethyl-4-pyrimidinylamino]-N-(4-methoxyphenyl)-N-methylacetamide] | < 0.01 mg/kg | 58.7 mg/kg | 2.15 nM | 
8 | Cc1nc(-c2ccc(Cl)cc2)nc(NCC(=O)N(C)c2ccccc2)c1C [Example 23, 2-[2-(4-Chlorophenyl)-5,6-dimethyl-4-pyrimidinylamino]-N-methyl-N-phenylacetamide] | 0.01 mg/kg | 40.8 mg/kg | 1.76 nM | 
9 | Cc1nc(-c2ccc(Cl)cc2)nc(OCC(=O)N(C)c2ccccc2)c1C [Example 144, 2-[2-(4-Chlorophenyl)-5,6-dimethyl-4-pyrimidinyloxy]-N-methyl-N-phenylacetamide] |  |  | 0.31 nM | severity of arthritis (arthritic score) versus control group [6]: much lower than the control group; onset of arthritis delayed until (days after the booster immunization) [6]: 37 days; effect on collagen-induced arthritis inhibitory test (conclusion) [6]: potent effect
10 | Cc1nc(-c2ccccc2)nc(NCC(=O)N(C)c2ccc(F)cc2)c1C [Example 35] | 0.1 mg/kg | 85.7 mg/kg | 1.51 nM | 
11 | Cc1nc(-c2ccccc2)nc(NCC(=O)N(C)c2ccccc2)c1C [Example 22] | 0.3 mg/kg | 50.3 mg/kg | 3.26 nM | 
12 | CC(=O)[C@H]1CC[C@H]2[C@@H]3CC[C@H]4C[C@H](O)CC[C@]4(C)[C@H]3CC[C@]12C [allopregnanolone] |  |  |  | effect in isoniazid-induced clonic convulsion test (known drugs) [1]: positive effect
13 | CCCN(CCC)C(=O)CNc1cc(-c2ccccc2)nc(-c2ccccc2)n1 [Example 93, 2-(2,6-Diphenyl-4-pyrimidinylamino)-N,N-dipropylacetamide] |  |  | 4.1 nM | severity of arthritis (arthritic score) versus control group [6]: much lower than the control group; onset of arthritis delayed until (days after the booster immunization) [6]: 40 days; effect on collagen-induced arthritis inhibitory test (conclusion) [6]: potent effect
14 | CCCN(CCC)C(=O)CNc1nc(-c2ccc(C(F)(F)F)cc2)nc(C)c1C [Example 6, 2-[5,6-Dimethyl-2-(4-trifluoromethylphenyl)-4-pyrimidinylamino]-N,N-dipropylacetamide] | 0.3 mg/kg |  | 0.23 nM | onset of arthritis delayed until (days after the booster immunization) ([5]; 10 mg/kg oral, 5 consecutive days a week for 8 weeks): 21 days; severity of arthritis versus control group ([5]; 10 mg/kg oral, 5 days a week, at least until day 34, last day of the experiment): much lower than the control group; effect on collagen-induced arthritis inhibitory test (conclusion) [5]: potent effect
15 | Cc1nc(-c2ccccc2)nc(NCC(=O)N(C)c2ccc(Br)cc2)c1C [Example 37] | 0.1 mg/kg | 61.9 mg/kg | 1.66 nM | 
16 | CCN(C(=O)CNc1nc(-c2ccc(Cl)cc2)nc(C)c1C)c1ccccc1 [Example 45, 2-[2-(4-Chlorophenyl)-5,6-dimethyl-4-pyrimidinylamino]-N-ethyl-N-phenylacetamide] | 0.1 mg/kg | 9.6 mg/kg | 0.7 nM | 
17 | CCCN(CCC)C(=O)COc1nc(-c2ccccc2)nc(C)c1C [Example 136, 2-(5,6-dimethyl-2-phenyl-4-pyrimidinyloxy)-N,N-dipropylacetamide] | 0.3 mg/kg |  | 0.34 nM | severity of arthritis (arthritic score) versus control group [6]: much lower than the control group; onset of arthritis delayed until (days after the booster immunization) [6]: 34 days; effect on collagen-induced arthritis inhibitory test (conclusion) [6]: potent effect
18 | Cc1nc(-c2ccccc2)nc(NCC(=O)N(C)c2ccc(Cl)cc2)c1C [Example 29, N-(4-Chlorophenyl)-N-methyl-2-(5,6-dimethyl-2-phenyl-4-pyrimidinylamino) a cetamide] | 0.03 mg/kg | 67.5 mg/kg | 0.85 nM | 
19 | CCCN(C(=O)COc1nc(-c2ccccc2)nc(C)c1C)c1ccccc1 [Example 178, 2-(5,6-Dimethyl-2-phenyl-4-pyrimidinyloxy)-N-phenyl-N-propylacetamide] |  |  | 0.57 nM | suppression of arthritis as compared with control ([5]; 10 mg/kg oral, 5 days a week): the arthritis was suppressed as compared with the control; effect on collagen-induced arthritis inhibitory test (conclusion) [5]: less potent effect
